Assay results: USRE48461E1, “Modulation of androgen receptor expression” (Ionis Pharmaceuticals, Inc., priority 2012, dated 2021)
Oligonucleotides are written 5' to 3', each unit as a sugar letter and its base; * is a phosphorothioate linkage, no mark a phosphodiester; rarer units and linkages stand in square brackets, end groups in braces. Plain capitals give the bases only. k = constrained ethyl (cEt); [5mC] = 5-methylcytosine; d = 2'-deoxy (DNA)

Key:
AR mRNA [1] = assay: Dose-dependent antisense inhibition of human AR in HuVEC cells (electroporation, qRT-PCR RTS3559, IC50); type: cell-based; conditions: HuVEC, electroporation, approximately 16 hours
Procedure, shortened: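 HuVEC cells dosed with antisense oligonucleotides by electroporation and treated approximately 16 hours. AR mRNA quantified by real-time qPCR with primer probe set RTS3559 and normalised to total RNA by RIBOGREEN; IC50 from dose-response.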

AR mRNA [2] = assay: Antisense inhibition of human AR in HuVEC cells, single concentration (electroporation, qRT-PCR RTS3559); type: cell-based; conditions: 500 nM ASO, ~24 h
Procedure, shortened: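 HuVEC cells electroporated with antisense oligonucleotides at a single concentration. AR mRNA quantified by qRT-PCR using human primer-probe set RTS3559 and normalised to total RNA content by RIBOGREEN.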

| Substance | percent inhibition of AR, 46.9 nM (AR mRNA [1]; Table 29) [%] | percent inhibition of AR, 187.5 nM (AR mRNA [1]; Table 29) [%] | percent inhibition of AR, 750.0 nM (AR mRNA [1]; Table 29) [%] | percent inhibition of AR, 3000.0 nM (AR mRNA [1]; Table 29) [%] | IC50 (AR mRNA [1]; Table 29) [nM] | % inhibition (AR mRNA [2]; Table 17) [%] | percent inhibition of AR, 46.9 nM (AR mRNA [1]; Table 30) [%] | percent inhibition of AR, 187.5 nM (AR mRNA [1]; Table 30) [%] | percent inhibition of AR, 750.0 nM (AR mRNA [1]; Table 30) [%] | percent inhibition of AR, 3000.0 nM (AR mRNA [1]; Table 30) [%] | IC50 (AR mRNA [1]; Table 30) [nM] | % inhibition (AR mRNA [2]; Table 18) [%] |
| --- | --- | --- | --- | --- | --- | --- | --- | --- | --- | --- | --- | --- |
| 583613 (antisense kG*k[5mC]*kA*dA*dT*dG*dT*dG*d[5mC]*dA*dG*d[5mC]*dT*kA*kG*k[5mC]) [compound 583613] | 24 | 60 | 70 | 75 | 190 | 51 |  |  |  |  |  |  |
| 583635 (antisense k[5mC]*kT*kG*dG*d[5mC]*dT*d[5mC]*d[5mC]*dG*d[5mC]*dA*d[5mC]*dT*k[5mC]*kG*kG) [compound 583635] | 35 | 56 | 69 | 78 | 130 | 50 |  |  |  |  |  |  |
| 583637 (antisense kA*kT*k[5mC]*dT*d[5mC]*dT*dG*dG*d[5mC]*dT*d[5mC]*d[5mC]*dG*k[5mC]*kA*k[5mC]) [compound 583637] |  |  |  |  |  | 43 | 22 | 32 | 59 | 75 | 450 |  |
| 583638 (antisense kT*kG*kA*dT*d[5mC]*dT*d[5mC]*dT*dG*dG*d[5mC]*dT*d[5mC]*k[5mC]*kG*k[5mC]) [compound 583638] | 33 | 64 | 79 | 85 | 110 | 51 |  |  |  |  |  |  |
| 583642 (antisense kA*kG*kT*dG*dT*d[5mC]*d[5mC]*dA*d[5mC]*dT*dG*dA*dA*kG*kT*kA) [compound 583642] |  |  |  |  |  | 42 | 18 | 35 | 67 | 74 | 460 |  |
| 583649 (antisense kA*kG*kG*d[5mC]*dT*d[5mC]*dA*d[5mC]*dA*dG*dT*d[5mC]*dT*kG*kT*k[5mC]) [compound 583649] | 28 | 50 | 68 | 84 | 200 | 46 |  |  |  |  |  |  |
| 583660 (antisense kG*kA*k[5mC]*dA*d[5mC]*dA*d[5mC]*dG*dG*dT*dG*dG*dA*k[5mC]*kA*kA) [compound 583660] | 21 | 39 | 61 | 72 | 420 | 44 |  |  |  |  |  |  |
| 583662 (antisense kA*kG*kA*dA*dG*dA*d[5mC]*dA*d[5mC]*dA*d[5mC]*dG*dG*kT*kG*kG) [compound 583662] | 27 | 59 | 75 | 75 | 150 | 51 |  |  |  |  |  |  |
| 583667 (antisense k[5mC]*kG*k[5mC]*dT*d[5mC]*dT*dG*dA*d[5mC]*dA*dG*d[5mC]*d[5mC]*kT*k[5mC]*kA) [compound 583667] |  |  |  |  |  | 42 | 35 | 55 | 73 | 82 | 140 |  |
| 583687 (antisense kG*kG*kT*dA*dG*dT*d[5mC]*dG*d[5mC]*dT*dG*d[5mC]*dA*kG*k[5mC]*kT) [compound 583687] |  |  |  |  |  |  | 34 | 67 | 83 | 81 | 80 | 41 |
| 583688 (antisense kG*k[5mC]*kG*dG*dT*dA*dG*dT*d[5mC]*dG*d[5mC]*dT*dG*k[5mC]*kA*kG) [compound 583688] |  |  |  |  |  |  | 3 | 26 | 50 | 60 | 1050 | 38 |
| 583689 (antisense kA*kT*kG*d[5mC]*dG*dG*dT*dA*dG*dT*d[5mC]*dG*d[5mC]*kT*kG*k[5mC]) [compound 583689] |  |  |  |  |  |  | 20 | 34 | 62 | 74 | 440 | 39 |
